# Data taken from patent US10286000B2, “Retinoid X receptor-gamma agonists and retinoid X receptor-alpha antagonists for treatment of cancer” (St. Jude Children's Research Hospital, Inc., priority 2013, dated 2019).
# “Also recorded” adds a separate entry of the source.
# Columns and labels:
# [1] = tested on: NKG2DL (MICA-B, ULBP1-3) surface expression; assay: flow cytometry of NKG2DL cell surface expression in cancer cell lines; format: cell-based, human; settings: for NKG2DL expression, compound alone: HCT116 cells, 3 days; for effect of co-treatment on SPIR's upregulation of NKG2DLs: HCT116, SPIR 56 μM 3 days, HX531 10 μM, caffeine 1.5 mM, wortmannin 10 μM, KU55933 10 μM, VE-821 10 μM
# Method: Data are representative of five independent experiments. […] Controls were stained with APC-conjugated anti-human Fc antibody alone without preincubation with NKG2D-Fc. Data are representative of three independent experiments. […] Results are representative of two independent experiments. […] (E) NKG2DL mRNA expression in the colon cancer cell lines was analyzed by qRT-PCR analysis. Data are normalized to GAPDH mRNA levels and are presented as fold-change relative to the expression in DMSO-treated cells (n=5). (F) Lentiviral-based luciferase reporter construct containing the putative ULBP2 promoter (−2415 to 0 bp from the transcription start site: 73 bp upstream of ATG) was transduced into the colon cancer cell lines. Positively transduced cells were selected by puromycin treatment (2 μg/ml) for 2 weeks. […] Data shown are expressed as fold-change relative to the luciferase activity observed in DMSO-treated cells (n=3). * P<0.05, ** P<0.01.
# (§1) Cell lines were stained with allophycocyanin-conjugated anti-MICA, anti-MICB, or anti-ULBP2 antibodies for 20 min at 4° C. For ULBP1 and ULBP3 staining, cells were first incubated with anti-ULBP1 and anti-ULBP3 antibodies and then with allophycocyanin-conjugated goat anti-mouse IgG antibody. To analyze total NKG2DL cell surface expression, cells were first incubated with human NKG2D-Fc for 20 min at 4° C. and then with allophycocyanin-conjugated mouse anti-human IgG (Fc) antibody. Cells were washed and analyzed on a C6 flow cytometer (Accuri). Data were analyzed using FlowJo software (TreeStar).
# TIMP2 and TIMP3 = assay: qRT-PCR of TIMP2 and TIMP3 mRNA; format: cell-based, human; settings: HCT116 cells, 3 days
# Method: (§2) The number of cells that invaded the ECM was determined after 24 h. Data are expressed as percentage change in tumor invasion relative to that of DMSO-treated cells (n=3). (D) Wound healing by DMSO- and SPIR-treated HCT116, HT29, and CAL27 cells was compared. Data are calculated as the percentage change in distance of migration relative to that of DMSO-treated cells (n=3). […] Tumor xenografts and lung metastases were detected by bioluminescence imaging on day 25. Data are shown as the average total flux (photons/second)±standard deviation (n=8). (F) The lung metastases (arrows) were confirmed by examining lung tissue sections. * P≤0.05, ** P<0.01, *** P<0.005, **** P<0.0001.
# For qRT-PCR, total RNA was extracted from untreated or drug-treated tumor cells by using the RNA Clean & Concentrator (Zymo Research). All cDNA was generated by using the SuperScript VILO cDNA Synthesis kit (Life Technologies) and diluted 10-fold for analysis using the 7900HT Fast Real-time PCR System (Applied Biosystems). The data were calculated as the CT of target genes normalized to the CT of GAPDH of each sample. Primer sequences of the target genes were: MICA-F: 5′-[…]-3′, (SEQ ID NO: 14) MICA-R: 5′-[…]-[…]-3′, (SEQ ID NO: 15) MICB-F: 5′-[…]-3′, (SEQ ID NO: 16) MICB-R:5′-CCCTC-[…]-3′, (SEQ ID NO: 17), ULBP1-F:5′-[…]-3′, (SEQ ID NO: 18), ULBP1-R:5′-[…]-3′, (SEQ ID NO: 19), ULBP2-F:5′-[…]-3′, (SEQ ID NO: 20), ULBP2-R:5′-[…]-3′, (SEQ ID NO: 21), ULBP3-F:5′-[…]-TTCG-3′, (SEQ ID NO: 22), ULBP3-R:[…]-3′, (SEQ ID NO: 23), TIMP2-F:5′-[…]-[…]-3′, (SEQ ID NO: 24), TIMP2-R:[…]-3′, (SEQ ID NO: 25), TIMP3-F:5′-[…]-3′, (SEQ ID NO: 26), TIMP3-R:5′-[…]-[…]-3′ (SEQ ID NO: 27), GAPDH-F: 5′-[…]3′ (SEQ ID NO: 28), GAPDH-R: 5′-G-[…]-3′ (SEQ ID NO: 29). […] Differentially expressed transcripts were analyzed by ANOVA on Spotfire program.
# [2] = tested on: HCT116, HT29, and CAL27 cells; assay: in vitro cell invasion assay (ECM-coated Transwell); format: cell-based, human; settings: HCT116 cells
# Method: as §2
# The invasiveness of the tumor cells was determined by using the CytoSelect 96-well Cell Invasion Assay with Basement Membrane (Cell Biolabs) according to the manufacturer instructions.
# [3] = tested on: HCT116, HT29, and CAL27 cells; assay: wound-healing assay; format: cell-based, human; settings: HCT116 cells
# Method: as §2
# Confluent cell layers of CAL27 and HT29 cells with a 500 μm±50 μm gap were formed by using Ibidi culture inserts (RPI Corp.). Gap distances were measured at various times using a Nikon Eclipse Ti inverted microscope and NIS-Elements software (Nikon).
# 47 NHRs in HCT116 cells = assay: human nuclear hormone receptor siRNA library / siRNA knockdown, NKG2DL expression by NKG2D-Fc staining; format: cell-based
# Method: as §1
# For the transfection study, 2×10^5 cells were transfected with 60 pmol of siRNA molecules using lipofectamine RNAiMAX according to the manufacturer's instructions (Invitrogen).
# Consistent with previous reports, RXR-gamma was constitutively expressed in HCT116 cells (FIG. 5C) (Papi et al. 2010. Cancer Lett 297:65-74). Expression of RXR-gamma mRNA was also observed in all other cell lines tested. (FIG. 5D).
molecule,measurement,setting,value
"CC1=C(/C=C/C(C)=C\C=C\C(C)=C\C(=O)O)C(C)(C)CCC1 [9-cis-RA, 9-cis-retinoic acid]","NKG2DL expression, compound alone",[1],did not induce the upregulation of NKG2DL expression; also recorded: decrease was observed
CN1c2ccc([N+](=O)[O-])cc2N=C(c2ccc(C(=O)O)cc2)c2cc3c(cc21)C(C)(C)CCC3(C)C [HX531],effect of co-treatment on SPIR's upregulation of NKG2DLs,[1],significantly reduced
O=c1cc(-c2cccc3c2Sc2ccccc2S3)oc(N2CCOCC2)c1 [KU55933],effect of co-treatment on SPIR's upregulation of NKG2DLs,[1],completely abolished
CS(=O)(=O)c1ccc(-c2cnc(N)c(C(=O)Nc3ccccc3)n2)cc1 [VE-821],effect of co-treatment on SPIR's upregulation of NKG2DLs,[1],only partially reduced
same,effect of co-treatment on NKG2DL expression at increased concentration,"[1]; HCT116, SPIR 56 μM, VE-821 20 μM",did not further affect NKG2DL expression
Cn1c(=O)c2c(ncn2C)n(C)c1=O [caffeine],effect of co-treatment on SPIR's upregulation of NKG2DLs,[1],completely abolished
C[C@]12CCC(=O)C=C1C=C[C@@H]1[C@@H]2CC[C@@]2(C)[C@H]1CC[C@@]21CCC(=O)O1 [canrenone],"NKG2DL expression, compound alone",[1],did not reproduce the phenotypes of enhanced expression of NKG2DL
same,TIMP2 expression,TIMP2 and TIMP3,neither canrenone nor eplerenone upregulated TIMP2 expression
same,"cell invasion, MR antagonists vs SPIR",[2],did not reproduce the suppressive effect of SPIR
same,"cell migration, MR antagonists vs SPIR",[3],did not reproduce the suppressive effect of SPIR
COC(=O)[C@@H]1CC2=CC(=O)CC[C@]2(C)[C@@]23O[C@@H]2C[C@@]2(C)[C@@H](CC[C@@]24CCC(=O)O4)[C@H]13 [eplerenone],"NKG2DL expression, compound alone",[1],did not reproduce the phenotypes of enhanced expression of NKG2DL
same,TIMP2 expression,TIMP2 and TIMP3,neither canrenone nor eplerenone upregulated TIMP2 expression
same,"cell invasion, MR antagonists vs SPIR",[2],did not reproduce the suppressive effect of SPIR
same,"cell migration, MR antagonists vs SPIR",[3],did not reproduce the suppressive effect of SPIR
"RXR-alpha siRNA: siRNA targeting RXR-alpha, ThermoScientific Cat No. D-003443-06; GGGAGAAGGUCUAUGCGUC (listed as RNA, chemistry not given here)",NKG2DL expression after gene knockdown without drug treatment,47 NHRs in HCT116 cells,enhances the expression of NKG2DLs; also recorded: increase of NKG2DL expression
same,SPIR-mediated NKG2DL upregulation after siRNA knockdown,47 NHRs in HCT116 cells,did not affect the potential of SPIR in upregulating NKG2DL expression
